Key:
[1] = Bioavailability of the salt compared with free base and other salts; type: in vivo; settings: compared to the free base form of the Agent and other salts
[2] = Dissolution rate of the salt compared with free base and other salts; type: physicochemical; settings: compared to the free base form of the Agent and other salts
[3] = Bioavailability of the free base form from a conventional tablet formulation; settings: dog, in vivo, oral, in dogs
[4] = Biopharmaceutical Classification System (BCS) classification; type: physicochemical; settings: indicates low solubility/dissolution rate and low permeability

Row | Structure (SMILES) | bioavailability [1] | dissolution rate [2] | bioavailability [3] [%] | BCS classification [4]
1 | Cn1cnc2c(F)c(Nc3ccc(Br)cc3Cl)c(C(=O)NOCCO)cc21 [Agent, 6-(4-bromo-2-chloro-phenylamino)-7-fluoro-3-methyl-3H-benzoimidazole-5-carboxylic acid (2-hydroxy-ethoxy)-amide] | particularly high | particularly high |  | 
2 | Cn1cnc2c(F)c(Nc3ccc(Br)cc3Cl)c(C(=O)NOCCO)cc21 [free-base form of the Agent, 6-(4-bromo-2-chloro-phenylamino)-7-fluoro-3-methyl-3H-benzoimidazole-5-carboxylic acid (2-hydroxy-ethoxy)-amide] |  |  | ~18 | BCS Class 4
